Data reported in ChEMBL document CHEMBL1201862, “PubChem BioAssay data set” (2004).
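Assay format: 96-well plates, 48-hour exposure. Abbreviation: GI50, concentration required for 50% inhibition of growth.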 Active and inactive are the calls of the source. Rule as the data show it: active = GI50 up to about 1.1 µM and inactive = higher.

Legend:
Test in all cases: NCI anticancer screen, dose series, 48 h
786-0 = test system: 786-0
CCRF-CEM = test system: CCRF-CEM
DMS-114 = test system: DMS-114
DMS-273 = test system: DMS-273
HCT-116 = test system: HCT-116
HCT-15 = test system: HCT-15
HT-29 = test system: HT-29
K562 = test system: K562
KM-20L2 = test system: KM-20L2
LXFL 529 = test system: LXFL 529
NCI-H460 = test system: NCI-H460
RXF 393 = test system: RXF 393
SK-MEL-28 = test system: SK-MEL-28
SW-620 = test system: SW-620
U-251 = test system: U-251
UO-31 = test system: UO-31
SK-OV-3 = test system: SK-OV-3

SMILES | GI50 (786-0) | GI50 (CCRF-CEM) | GI50 (DMS-114) | GI50 (DMS-273) | GI50 (HCT-116) | GI50 (HCT-15) [µM] | GI50 (HT-29) | GI50 (K562) | GI50 (KM-20L2) | GI50 (LXFL 529) | GI50 (NCI-H460) | GI50 (RXF 393) | GI50 (SK-MEL-28) | GI50 (SW-620) | GI50 (U-251) | GI50 (UO-31) | GI50 (SK-OV-3)
CCOC(=O)C(C(CC(=O)OC)NC(=O)OCc1ccccc1)C1(C)OCCO1 (stereo not drawn) | > 100 µM (inactive) | > 100 µM (inactive) | > 100 µM (inactive) | > 100 µM (inactive) | > 100 µM (inactive) | > 100 | > 100 µM (inactive) | > 100 µM (inactive) | > 100 µM (inactive) | > 100 µM (inactive) | > 100 µM (inactive) | > 100 µM (inactive) | > 100 µM (inactive) | > 100 µM (inactive) | > 100 µM (inactive) | > 100 µM (inactive) | 
CCCCN(CCCC)C(=Nc1ccccc1)N(CCCC)CCCC | 3.3 µM (inactive) | 3.89 µM (inactive) | 1.59 µM (inactive) | 4.61 µM (inactive) | 1.67 µM (inactive) |  | 2.36 µM (inactive) | 2.09 µM (inactive) | 0.851 µM (active) | 5.36 µM (inactive) | 3.34 µM (inactive) | 5.02 µM (inactive) | 3.1 µM (inactive) | 3.54 µM (inactive) | 1.95 µM (inactive) | 2.81 µM (inactive) | 8.43 µM (inactive)
CC(C)OCN/C(N)=N\C#N | 82.4 µM (inactive) |  | > 100 µM (inactive) | 49.2 µM (inactive) | > 100 µM (inactive) | 17.5 | 43.8 µM (inactive) | > 100 µM (inactive) | > 100 µM (inactive) | > 100 µM (inactive) | > 100 µM (inactive) | 46.1 µM (inactive) | > 100 µM (inactive) | 17 µM (inactive) | > 100 µM (inactive) | > 100 µM (inactive) | > 100 µM (inactive)
Cc1c(-c2coc(-c3ccc([N+](=O)[O-])cc3)n2)c(=O)n(-c2ccccc2)n1C | > 100 µM (inactive) | > 100 µM (inactive) | > 100 µM (inactive) | > 100 µM (inactive) | > 100 µM (inactive) | > 100 | > 100 µM (inactive) |  | > 100 µM (inactive) | > 100 µM (inactive) | > 100 µM (inactive) |  | > 100 µM (inactive) |  | > 100 µM (inactive) | > 100 µM (inactive) | > 100 µM (inactive)
Nc1n/c(=N\c2ccccc2)ss1 | > 100 µM (inactive) |  | > 100 µM (inactive) | > 100 µM (inactive) | > 100 µM (inactive) |  | > 100 µM (inactive) | 78 µM (inactive) | > 100 µM (inactive) | > 100 µM (inactive) | > 100 µM (inactive) | > 100 µM (inactive) | > 100 µM (inactive) | > 100 µM (inactive) | > 100 µM (inactive) | > 100 µM (inactive) | > 100 µM (inactive)
O=C(c1ccccc1)C1S(=O)(=O)OCCOS1(=O)=O | > 100 µM (inactive) | > 100 µM (inactive) | > 100 µM (inactive) | > 100 µM (inactive) | > 100 µM (inactive) |  | > 100 µM (inactive) | > 100 µM (inactive) |  | > 100 µM (inactive) |  |  | > 100 µM (inactive) | > 100 µM (inactive) |  | > 100 µM (inactive) | > 100 µM (inactive)
Cc1ccc(NC(=O)OCC(COc2ccc(Cl)cc2Cl)OC(=O)Nc2ccc(C)cc2)cc1 (stereo not drawn) | 64.6 µM (inactive) |  | > 100 µM (inactive) | > 100 µM (inactive) | > 100 µM (inactive) | > 100 | > 100 µM (inactive) |  | > 100 µM (inactive) | 81.5 µM (inactive) | > 100 µM (inactive) | 79.4 µM (inactive) | > 100 µM (inactive) | > 100 µM (inactive) | 34.8 µM (inactive) | 66.2 µM (inactive) | > 100 µM (inactive)
COc1ccccc1NC(=O)CC(=O)n1nc(C)c(/N=N/c2ccccc2C(=O)O)c1C | > 100 µM (inactive) | > 100 µM (inactive) | > 100 µM (inactive) | > 100 µM (inactive) | > 100 µM (inactive) | > 100 | > 100 µM (inactive) | 97.1 µM (inactive) | > 100 µM (inactive) | > 100 µM (inactive) | > 100 µM (inactive) |  | > 100 µM (inactive) | > 100 µM (inactive) | 95.7 µM (inactive) | 48.6 µM (inactive) | > 100 µM (inactive)
Cc1ccc(/C=N/NS(=O)(=O)c2ccccc2)cc1C | > 100 µM (inactive) | > 100 µM (inactive) | 46.1 µM (inactive) | > 100 µM (inactive) | 76 µM (inactive) | > 100 | > 100 µM (inactive) | > 100 µM (inactive) | > 100 µM (inactive) | 36.5 µM (inactive) | > 100 µM (inactive) | > 100 µM (inactive) | > 100 µM (inactive) | > 100 µM (inactive) | > 100 µM (inactive) | > 100 µM (inactive) | > 100 µM (inactive)
O=C1C2C=CC(n3[nH]c(=O)n(Cc4ccccc4)c3=O)CC2C(=O)N1c1ccc(Br)cc1 (stereo not drawn) | > 100 µM (inactive) | > 100 µM (inactive) | > 100 µM (inactive) | > 100 µM (inactive) | > 100 µM (inactive) | > 100 | > 100 µM (inactive) | > 100 µM (inactive) | > 100 µM (inactive) | > 100 µM (inactive) | > 100 µM (inactive) | > 100 µM (inactive) | > 100 µM (inactive) | > 100 µM (inactive) | > 100 µM (inactive) | > 100 µM (inactive) | > 100 µM (inactive)
O=C(CC1(O)C(=O)Nc2ccccc21)c1ccc(Cl)cc1Cl (stereo not drawn) | > 100 µM (inactive) |  | > 100 µM (inactive) | > 100 µM (inactive) | > 100 µM (inactive) | > 100 | > 100 µM (inactive) | > 100 µM (inactive) | > 100 µM (inactive) | > 100 µM (inactive) |  | > 100 µM (inactive) | > 100 µM (inactive) | > 100 µM (inactive) |  | > 100 µM (inactive) | > 100 µM (inactive)
N#CC(C(=O)CCC(=O)Nc1ccc(Cl)c(Cl)c1)c1ccc(Cl)cc1 (stereo not drawn) | > 100 µM (inactive) |  | 75.3 µM (inactive) | 39.3 µM (inactive) | > 100 µM (inactive) | 17.1 | > 100 µM (inactive) | 14.6 µM (inactive) | 15 µM (inactive) | 21.3 µM (inactive) | > 100 µM (inactive) | > 100 µM (inactive) | > 100 µM (inactive) | > 100 µM (inactive) | > 100 µM (inactive) | 75.2 µM (inactive) | 
CCOc1ccc(NC(=O)C2=C(C)NC(C)=C(C(=O)Nc3ccc(OCC)cc3)C2c2ccc([N+](=O)[O-])cc2)cc1 | 29.3 µM (inactive) | 13.3 µM (inactive) | 18.4 µM (inactive) |  |  |  | 33.9 µM (inactive) | 23.3 µM (inactive) | 20 µM (inactive) | 22.1 µM (inactive) | 22.9 µM (inactive) | 14 µM (inactive) | 34.2 µM (inactive) | 22.3 µM (inactive) | 27.8 µM (inactive) | 17.7 µM (inactive) | > 100 µM (inactive)
O=C1C2CCC(C2)C12CC1(c3ccccc3)C(=O)c3ccccc3N1O2 (stereo not drawn) | > 100 µM (inactive) | > 100 µM (inactive) | > 100 µM (inactive) | 81.8 µM (inactive) | > 100 µM (inactive) | > 100 | > 100 µM (inactive) | > 100 µM (inactive) | > 100 µM (inactive) | > 100 µM (inactive) |  | > 100 µM (inactive) | > 100 µM (inactive) | > 100 µM (inactive) | > 100 µM (inactive) | > 100 µM (inactive) | > 100 µM (inactive)
O=c1[nH]c(=O)n(C2OC(CO)C(O)C2O)cc1OCC(F)(F)F (stereo not drawn) | > 100 µM (inactive) | > 100 µM (inactive) | > 100 µM (inactive) | > 100 µM (inactive) | > 100 µM (inactive) | > 100 | > 100 µM (inactive) | > 100 µM (inactive) | > 100 µM (inactive) | > 100 µM (inactive) | > 100 µM (inactive) | > 100 µM (inactive) | > 100 µM (inactive) | > 100 µM (inactive) | > 100 µM (inactive) | > 100 µM (inactive) | > 100 µM (inactive)
C[C@@H](NC1CCCC[C@@H]1O)c1ccccc1 (stereo partly drawn) | > 100 µM (inactive) | > 100 µM (inactive) |  | > 100 µM (inactive) | > 100 µM (inactive) | > 100 | > 100 µM (inactive) | > 100 µM (inactive) | > 100 µM (inactive) | > 100 µM (inactive) | > 100 µM (inactive) | > 100 µM (inactive) | > 100 µM (inactive) | > 100 µM (inactive) | > 100 µM (inactive) | > 100 µM (inactive) | > 100 µM (inactive)
CC/C=C/c1cc2cc[nH]c2c2c1C(C)C[C@@H]2C (stereo partly drawn) | 18.9 µM (inactive) | 23.7 µM (inactive) | 20.6 µM (inactive) | > 10 µM (inactive) | 15.7 µM (inactive) | 22.5 | 28.6 µM (inactive) | 25.1 µM (inactive) |  | 18.3 µM (inactive) | 25.1 µM (inactive) | 17.7 µM (inactive) | 22.8 µM (inactive) | 31.9 µM (inactive) | 23.4 µM (inactive) | 24.9 µM (inactive) | 63.8 µM (inactive)
CC(=O)OC(C[C@H](C)[C@@H]1CC[C@]2(C)C3=CCC4C(C)(C)C(=O)CC[C@]4(C)C3CCC12C)C1OC1(C)C (stereo partly drawn) | 19.7 µM (inactive) | 15.9 µM (inactive) | 32.5 µM (inactive) | 17.1 µM (inactive) | 18.2 µM (inactive) | 33 | 15.7 µM (inactive) | 7.24 µM (inactive) | 25.5 µM (inactive) | 22.4 µM (inactive) |  | 15.1 µM (inactive) | 27.3 µM (inactive) | 34.1 µM (inactive) | 21.9 µM (inactive) | 13.2 µM (inactive) | 13 µM (inactive)
